The subject of one series is Torulopsis glabrata. Nature of the series: FISP disc diffusion assay. The note with it: Nakaseomyces glabratus; 250 μg/ml in CH2Cl2; read-out: diameter of the zone of inhibition of growth. It counts as cell-based. The text has this:
(§1) The FISP assay employs disc diffusion susceptibility testing methods to generate a spectrum of activity against a panel of representative yeasts, filamentous fungi and bacteria.
(§2) The yeasts employed in the assay are Saccharomyces cerevisiae, Candida albicans, Candida tropicalis, Candida rugosa, Brettanomyces bruxellensis, Torulospora hansenii, Candida guilliermondi, Candida pseudotropicalis, Torulopsis glabrata, Cryptococcus albidus, Cryptococcus laurentii and Kluyveromyces fragilis.
(§3) For carrying out the assay, seeded assay plates are prepared in the following manner according to the type of assay strain.
(§4) Inocula for yeasts and bacterial strains are prepared from overnight broth cultures then diluted into potato dextrose agar to a final concentration of either 40 percent or 70 percent transmission at 660 nm.
(§5) Assay plates for the yeasts and filamentous fungi are prepared by diluting the inoculum into appropriate molten agar medium, cooled to 45° C. to obtain a final concentration of 4 percent.
(§6) The seeded agar media thus prepared are dispensed into petri dishes for assays (11 ml per dish). […]
(§7) Following incubation, the inhibition zones are measured and recorded. […]
(§8) FISP data is reported as the diameter (in mm.) of the zone of inhibition of growth in agar diffusion assays. The zone is determined by measuring growth that differs from the background lawn. […]
(Agar diffusion results depend on both activity and mobility in agar.)

In another series the test system is Candida guilliermondii. The experiment in a line: FISP disc diffusion assay. Format: cell-based. The note with it: Meyerozyma guilliermondii; 250 μg/ml in CH2Cl2; read-out: diameter of the zone of inhibition of growth.
Text: as §1, §2, §3, §4, §5, §6, §7, §8

Another series has as its system Streptomyces sp. Nature of the series: FISP disc diffusion assay. It counts as cell-based. The conditions noted are these: 250 μg/ml in CH2Cl2. The arrangement: key: F: clear zone, fuzzy edges; S: slightly hazy zone (some growth observed throughout zone); H: hazy zone (considerable growth observed throughout zone); V: very hazy zone (zone of inhibition is barely discernable); R: zone displays a ring of resistant growth; no qualifier: clear zone throughout, sharp edges. As to the method:
as §1
The bacteria employed in the assay are Streptomyces sp., Acholeplasma laidlawii and Bacillus subtilis.
as §3, §4
(§9) The seeded agar media thus prepared are dispensed into petri dishes for assays (11 ml per dish).
The samples to be tested for production of antifungal agent are applied to 6.2 mm filter paper discs (25 μl/disc) and air dried at 24° C. When the sample to be tested is crude broth, it may be centrifuged prior to application. The discs bearing the material to be tested are then applied employing sterile conditions to the seeded assay plates. The assay plates are then incubated at either 28° C. or 37° C. for 24 hours. […]
as §7, §8

Another series is described as follows: Light stability. Format: physicochemical.
A further series concerns Candida albicans. Nature of the series: FISP disc diffusion assay. Format: cell-based. Set-up: key to zone quality qualifier: F: clear zone, fuzzy edges; S: slightly hazy zone (some growth observed throughout zone); H: hazy zone (considerable growth observed throughout zone); V: very hazy zone (zone of inhibition is barely discernable); R: zone displays a ring of resistant growth; no qualifier: clear zone throughout, sharp edges. The note with it: 250 μg/ml in CH2Cl2.
Text: as §1, §2, §3, §4
For three strains of Candida albicans and one strain of Saccharomyces cerevisiae, sterile saline is employed in place of potato dextrose broth.
as §5, §9
The samples to be tested for production of antifungal agent are applied to 6.2 mm filter paper discs (25 μl/disc) and air dried at 24° C. When the sample to be tested is crude broth, it may be centrifuged prior to application. The discs bearing the material to be tested are then applied employing sterile conditions to the seeded assay plates. The assay plates are then incubated at either 28° C. or 37° C. for 24 hours. In one of the assays for Bacillus subtilis, the sample is applied to a disc previously impregnated with 4M potassium chloride at 25 μl/disc and then air dried.
Following incubation, the inhibition zones are measured and recorded. The measurements are made from the extreme edge where growth differs from the background zone. The zones are noted as to appearance as fuzzy edge and clear center, hazy throughout, slightly hazy, very hazy or ringed.
FISP data is reported as the diameter (in mm.) of the zone of inhibition of growth in agar diffusion assays. The zone is determined by measuring growth that differs from the background lawn. A qualifier is also added to describe the zone quality as listed below: no qualifier: clear zone throughout, sharp edges

What is called zone of inhibition is the extent of the growth-free halo in a diffusion test. As for `CC(/C=C/C=C(\C)C(O)C(C)C(=O)O[C@H]1C[C@H](C)C=C2C=C[C@@]3(C)O[C@@H](O)CC(=O)[C@]3(C)[C@H]21)=C\C=C\C(=O)O` (stereo partly shown) [Compound A], the zone of inhibition at 250 µg/mL came out at 0 mm in the series with Torulopsis glabrata; 0 mm in the series on Candida guilliermondii; 0 mm with Candida albicans (Candida albicans, read-out: diameter of the zone of inhibition of growth). For the same compound, the zone quality qualifier entry with Streptomyces sp. is reported as “V”; in the series on Candida albicans it was “S”; with Candida albicans (YNB), “V”; in the series on Candida albicans (YNB/GLU), “H”; in the series with Candida albicans (YNB/NAG), “H”. The stability result in the series “Light stability” (isolated and worked with in the absence of light) was “stable when isolated and worked with in the absence of light”. Moreover, in the series “Light stability” (light), the light sensitivity entry is reported as “light sensitive”.

The values above are taken from patent US5244795A, “Processes for preparing cholesterol lowering compounds” (Merck & Co., Inc., priority 1992, dated 1993).
